# Measured values: publication PMC3170513 (Neuropeptides, 2011)
# Starred links: 1 amine or outer side, 2 acyl side, 3 side chain; linkers in the order of their positions; H or OH if unused. Positions of bridges follow the written chain, without caps; N, C: chain ends. Non-standard residues stand in square brackets, D forms with d. Residues, ends and D or L forms follow the SMILES beside them. Chains are numbered I, II in the order given. Actinocin(9to1) = Cc1c2oc3c(C)ccc(C(=O)[*:1])c3nc-2c(C(=O)[*:2])c(N)c1=O; NMeV = CN[C@H](C(=O)O)C(C)C; Sar = CNCC(=O)O
# B1: Nerve Growth Factor 2.5S (protein, UniProt P01139 122-241, looked up)
# Beta-nerve growth factor: SSTHPVFHMGEFSVCDSVSVWVGDKTTATDIKGKEVTVLAEVNINNSVFRQYFFETKCRASNPVESGCRGIDSKHWNSYCTTTHTFVKALTTDEKQAAWRFIRIDTACVCVLSRKATRRG
# modifications: Beta-nerve growth factor
# What was measured:
# [1] = test system: 125I-CART 61-102 specific binding in PC12 cells; assay: Effect of differentiation; type: cell-based, Rat; conditions: 5 nM radioligand; for effect of inhibitors on specific binding, undifferentiated cells: undifferentiated PC12 cells, 6 hours, CHX 10 ug/ml, ActiD 2 mM, CytoD 4 mM, n=3 – 5
# [2] = test system: CART binding in nucleus accumbens neurons; conditions: primary cell cultures; ref Jones and Kuhar, 2008; cited from earlier work
# [3] = test system: voltage dependant Ca++ signaling in hippocampal cells; conditions: hippocampal cells in culture; ref Yermolaieva et al., 2001; cited from earlier work
# [4] = test system: ERK signaling in AtT20 cells; conditions: ref Lakatos et al., 2005; cited from earlier work
# [5] = test system: phospho-ERK in PC12 cells; assay: ERK activation; type: cell-based, Rat; conditions: for inhibition of CART-induced phospho-ERK (general, in words): pertussis toxin
# [6] = test system: CART binding in PC12 cells; conditions: ref Maixnerova et al., 2007, Maletinska et al.; cited from earlier work
molecule,measurement,setting,value
"Cc1c2oc3c(C)ccc(C(=O)N[C@@H]4C(=O)N[C@H](C(C)C)C(=O)N5CCC[C@H]5C(=O)N(C)CC(=O)N(C)[C@@H](C(C)C)C(=O)O[C@@H]4C)c3nc-2c(C(=O)N[C@@H]2C(=O)N[C@H](C(C)C)C(=O)N3CCC[C@H]3C(=O)N(C)CC(=O)N(C)[C@@H](C(C)C)C(=O)O[C@@H]2C)c(N)c1=O [ActiD, Actinomycin D] (I: T[dV]P[Sar][NMeV] / II: T[dV]P[Sar][NMeV]; ester I:1-I:C, II:1-II:C; linker I:N-II:N via Actinocin(9to1))","effect of inhibitors on specific binding, undifferentiated cells",[1],none of the inhibitors had any effects
"C[C@@H]1C[C@@H]([C@H](O)CC2CC(=O)NC(=O)C2)C(=O)[C@@H](C)C1 [CHX, Cycloheximide]","effect of inhibitors on specific binding, undifferentiated cells",[1],none of the inhibitors had any effects
"C=C1[C@@H](C)[C@H]2[C@H](Cc3ccccc3)NC(=O)[C@]23[C@H](OC(C)=O)/C=C/[C@@](C)(O)C(=O)[C@@H](C)C/C=C/[C@H]3[C@@H]1O [CytoD, Cytochalasin D]","effect of inhibitors on specific binding, undifferentiated cells",[1],none of the inhibitors had any effects
Nc1nc2c(ncn2[C@@H]2O[C@H](COP(=O)(O)OP(=O)(O)OP(=O)(O)O)[C@@H](O)[C@H]2O)c(=O)[nH]1 [GTP],specific binding in nucleus accumbens neurons and effect of nucleotides on it,[2],reduced the binding of CART peptide
Pertussin Toxin [PTX],effect on voltage dependant Ca++ signaling,[3],blocked
same,ERK signaling in AtT20 cells,[4],reduced
same,"inhibition of CART-induced phospho-ERK (general, in words)",[5]; PC12 cells,reduced
same,"inhibition of CART-induced phospho-ERK (general, in words)","[5]; PC12 cells, listed as pertussis toxin",blocked
same,"inhibition of CART-induced phospho-ERK, N-differentiated cells","[5]; PTX 200ng/m, at least 16 hrs, N 3 days, CART 61-102 0.3 µM",prevented
same,"inhibition of CART-induced phospho-ERK, N + P-differentiated cells","[5]; PTX 200ng/m, at least 16 hrs, N + P 3 days, CART 61-102 0.3 µM",inhibited
same,"inhibition of CART-induced phospho-ERK, undifferentiated cells","[5]; PTX 200ng/m, at least 16 hrs, undifferentiated PC12 cells, CART 0.3 µM",inhibited
same,effect of PTX alone on phospho-ERK,"[5]; PTX alone vs control, PC12 cells",no inhibitory effect compared to control
B1,specific binding in PC12 cells,[6],increased after differentiation
same,"phospho-ERK stimulation, positive controls","[5]; acute treatment, undifferentiated and differentiated PC12 cells, data not shown",increased ERK phosphorylation
same,change of specific 125I-CART 61-102 binding over 1-3 days of differentiation,"[1]; NGF 50ng/mL and/or PACAP 100nM, 1, 2, 3 days, N = 3 – 5",increased
